Data as given in publication PMC6271245, “Discovery of Gramine Derivatives That Inhibit the Early Stage of EV71 Replication in Vitro” (Molecules, 2014).

Columns and labels:
[1] = tested on: EV71 RNA; test: Viral RNA synthesis by quantitative RT-PCR in RD cells; format: cell-based, Enterovirus 71; details: 40 µg/mL
Method: To further analyze the effect of 4s on EV71 replication in RD cells, the efficacy of 4s in inhibiting viral RNA synthesis was analyzed by quantitative reverse transcription polymerase chain reaction (RT-PCR). The infected cells treated with or without 40 µg/mL 4s were harvested at 4, 8, 24 and 36 h pi to examine the relative amount of viral RNA. The fold difference of RNA for all the samples was calculated relative to the RNA level in the EV71-infected cells (virus control) at 4 h pi.
(§1) Figure 4 The effect of 4s on EV71 replication in RD cells. RD cells infected with 100 TCID50 of EV71 were incubated in the absence (virus control) or presence of 40 µg/mL 4s and harvested at the indicated times pi. (A) Total RNA was extracted from cells and culture supernatants and EV71 RNA levels were measured. Cellular actin amplification was used for normalization. The ΔΔCt data were calculated from three independent experiments; (B) EV71-protein was determined by indirect immunofluorescence using a mouse anti-enterovirus 71 monoclonal antibody and an Alexa-Fluor-488-conjugated AffiniPure goat anti-mouse IgG (H + L). The nucleus was stained with DAPI; the green foci indicate the presence of EV71 protein.
The EV71 RNA was extracted from infected cells and culture supernatants with TRIzol (Gibco-Invitrogen, Carlsbad, CA, USA) and reverse-transcribed using a PrimeScript RT reagent kit (TaKaRa, Dalian, China) according to the manufacturer’s instructions. The products of reverse transcription were quantified with the SYBR Premix Ex Taq II (perfect real time) kit (TaKaRa) and detected with a Step One Plus sequence detection system (Applied Biosystems, Foster City, CA, USA). Expression of actin was used as an internal standard. The special primer sequences were: EV71-VP1-F: 5'-[…]-3', EV71-VP1-R: 5'-GTCTCAATCATGCTCTC GTCACT-3'; Actin-F: 5'-[…]-3', Actin-R: 5'-AGGGGCCGGACTCGT CATACT-3'.

[2] = tested on: EV71 protein; test: Viral protein by indirect immunofluorescence in RD cells; format: cell-based, Enterovirus 71; details: 40 µg/mL post-infection, RD cells, 4, 8 or 24 h
Method: as §1
The influence of 4s on the replication of EV71 was also determined at the translational level. The RD cells grown in 24 coverslips were infected with EV71 and treated with 40 µg/mL 4s post-infection, intracellular viral protein was detected by indirect immunofluorescence analysis after incubation for 4, 8 or 24 h. […]

[3] = tested on: EV71-infected RD cells; test: EV71-induced apoptosis, Annexin-V/propidium iodide flow cytometry; format: cell-based, Human; details: 40 µg/mL, 100 TCID50 EV71, 36–48 h
Method: EV71 adsorption, internalization, entry, uncoating, and viral RNA replication are […] to trigger infected cell apoptosis, but it is required for viral protein synthesis. Flow cytometry was performed to investigate the effect of 4s on virus-induced cell apoptosis. In the assays, EV71-infected cells were stained with Annexin-V-fluorescein and propidium iodide; fluorescence drifting indicates cells undergoing apoptosis.
Figure 5 Inhibition effect of 4s on EV71-induced apoptosis. RD cells were (A) left untreated or (B) infected with 100 TCID50 of EV71. After viral adsorption, RD cells were incubated in the (B) absence or (C) presence of 40 µg/mL 4s for 36–48 h; (D) The cells were stained with Annexin-V- fluorescein and propidium iodide and measured using flow cytometry. TEXT PRINTED IN THE PICTURE: (C) Virus + 4s: Q1 3.21%; Q2 4.06%; Q4 89.2%; Q3 3.55% DOUBTS OF THE COPYIST ABOUT THIS PICTURE: Panels A (Mock) and B (Virus control) also print quadrant percentages (A: 0.548%, 1.84%, 93.9%, 3.75%; B: 1.32%, 40.1%, 23.7%, 34.9%). I left them out because they are controls without a substance.
For the apoptosis assay, RD cells in 6-well plates infected with 100 TCID50 of EV71 were left untreated or treated with 40 µg/mL 4s for 36–48 h, until the CPEs of virus control cells reached 70%–80%. […]

`c1ccc(C(Nc2nc3ccccc3s2)c2c[nH]c3ccccc23)nc1` (stereo not drawn) [Compound 4s] was tested, and the “fold reduction of viral RNA copy number vs virus control” value (“fold reduction of viral RNA copy number” below) ([1]; 4 h pi) was 1.8 fold, the “fold reduction of viral RNA copy number” value ([1]; 8 h pi) was 9.0 fold and the “fold reduction of viral RNA copy number” value ([1]; 24 h pi) was 79.8 fold. The “fold reduction of viral RNA copy number” value ([1]; 36 h pi) was 174.7 fold, the “viral protein synthesis (immunofluorescent foci)” value [2] was “suppressed” and the “EV71-induced apoptosis (fluorescence drifting)” value [3] was “fluorescence drifting could hardly be observed”.
